Consider ten molecules from patent US5962294A, “Compositions and methods for the identification and synthesis of sialyltransferases” (The Regents of the University of California, priority 1993, dated 1999).

Substitutions are numbered along the chain they refer to.

One data set addresses T1, ST3O (Sus scrofa, UniProt Q02745).
T1 sequence (Q02745 28-343 limits assumed): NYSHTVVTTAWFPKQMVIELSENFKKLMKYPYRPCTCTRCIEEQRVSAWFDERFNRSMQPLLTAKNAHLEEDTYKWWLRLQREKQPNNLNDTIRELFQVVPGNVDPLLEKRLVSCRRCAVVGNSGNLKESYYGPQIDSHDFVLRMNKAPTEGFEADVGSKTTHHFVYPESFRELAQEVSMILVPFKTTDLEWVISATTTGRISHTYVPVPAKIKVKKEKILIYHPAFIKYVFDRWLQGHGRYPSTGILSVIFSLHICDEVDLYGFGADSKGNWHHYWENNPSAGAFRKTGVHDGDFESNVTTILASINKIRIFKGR
The data set can be described thus: Acceptor specificity of ST3O (Table 4). The conditions noted are these: acceptor 0.2 mM.

A further data set concerns the target T2, ST3N (Rattus norvegicus, UniProt Q02734).
T2 sequence (Q02734 29-374 limits assumed): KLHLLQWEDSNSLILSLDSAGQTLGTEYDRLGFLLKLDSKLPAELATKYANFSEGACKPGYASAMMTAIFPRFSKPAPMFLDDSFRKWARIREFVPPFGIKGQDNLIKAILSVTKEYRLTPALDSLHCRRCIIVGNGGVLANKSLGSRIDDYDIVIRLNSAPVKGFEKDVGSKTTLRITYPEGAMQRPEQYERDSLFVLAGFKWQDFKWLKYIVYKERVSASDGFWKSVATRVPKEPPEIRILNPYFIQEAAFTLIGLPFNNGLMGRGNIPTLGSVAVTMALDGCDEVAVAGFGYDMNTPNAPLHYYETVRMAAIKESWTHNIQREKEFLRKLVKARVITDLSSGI
The data set can be described thus: Acceptor specificity of ST3N (Table 4).

Another data set has as its target T3, rat ST3N (Rattus norvegicus, UniProt Q02734).
T3 sequence (Q02734 29-374 limits assumed): T2 sequence (Q02734 29-374 limits assumed)
The data set can be described thus: Acceptor specificity of soluble rat ST3N fusion protein (Table 3). To be noted: acceptor 0.2 mM; relative to LNT.

Another data set deals with T4, human ST3N (Homo sapiens, UniProt Q11203).
T4 sequence (Q11203 62-375): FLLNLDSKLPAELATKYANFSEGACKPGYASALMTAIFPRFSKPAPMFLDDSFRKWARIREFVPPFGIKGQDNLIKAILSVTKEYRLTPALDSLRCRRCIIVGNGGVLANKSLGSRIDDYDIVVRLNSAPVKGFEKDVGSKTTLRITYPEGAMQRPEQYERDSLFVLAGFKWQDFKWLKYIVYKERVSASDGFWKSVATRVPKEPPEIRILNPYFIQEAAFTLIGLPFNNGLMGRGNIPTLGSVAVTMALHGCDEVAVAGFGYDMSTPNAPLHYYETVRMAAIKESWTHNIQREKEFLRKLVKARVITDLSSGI
The data set can be described thus: Acceptor specificity of soluble human ST3N (protein A fusion from COS-1 cells, on IgG Sepharose). To be noted: acceptor 0.2 mM; relative to LNT.

Data set [1] deals with antifreeze glycoprotein (Galβ1,3GalNAc-Thr).
Data set [2] deals with asialo-α1-acid glycoprotein (Galβ1,4GlcNAc-R).
In data set [3] the target is asialofetuin (Galβ1,3GalNAc-Thr/Ser and Galβ1,4GlcNAc-R).
Data set [4] addresses ovine submaxillary asialo-mucin (GalNAc-Thr/Ser) (ovine).
The subject of data set [5] is sialidase from Newcastle disease virus. Format: biochemical. To be noted: product formed by the named enzyme, hydrolyzed with Newcastle disease virus sialidase.
The test system of data set [6] is acceptor substrate antifreeze glycoprotein (AFGP). The data set can be described thus: Sialyltransferase activity of purified porcine liver α2,3-0 sialyltransferase. Format: biochemical. The conditions noted are these: after third CDP-hexanolamine agarose column. An excerpt: FIG. 4 Purification of the α2,3-0 sialyltransferase on CDP-hexanolamine agarose (column III, CDP elution). […] In columns A and B elution of enzyme activity correlated predominantly with 48 kDa and a 45 kDa protein species, respectively (see inset, SDS-PAGE). These two species, form A and form B of the α2,3 sialyltransferase, had specific activities of 8-10 units/mg protein. The 48 kDA and 45 kDA species were blotted to a PVDF membrane and analyzed by NH2 -terminal sequencing.
The enzyme was purified from a porcine liver Triton X-100 extract by affinity chromatography on three successive columns of CDP-hexanolamineagarose. The elution profile from the first and third purification steps are shown in FIG. 3 and FIG. 4, respectively. […] These two peaks were separated by combining the indicated fractions into pools A and B, these two pools were subsequently found to be enriched in two different molecular weight forms of the α2,3-0 sialyltransferase.
The membranes were extracted three times with buffer (Conradt, H. S. et al., in Sialic Acids 1988 Proceedings of the Japanese-German Symposium on Sialic Acids (Schauer and Yamakawa, eds.) pp. 104-105, Verlag Wissenschaft and Bildung, Kiel [1988]) and the extract was passed over a 1.5 l CDP-hexanolamine agarose column (column 1) (16 umol/ml). After washing the column with 3 L buffer B, the column was eluted with a linear gradient of 0.05 to 1.0 M KCL (2.5 l×2.5 l) in buffer B. Fractions containing α2,3 sialyltransferase were combined into two pools A and B, representing the main part and the trailing end of the peak, respectively (see FIG. 3). The pools were dialysed against buffer B and subjected to another round of affinity chromatography on CDP-hexanolamine agarose (columns IIA and IIB). A 150 ml column was used for pool A and a 30 ml column was used for pool B; two preparations from column I (from total of 4 kg liver) were loaded on the same column in step II. […]

`CC(=O)N[C@H]1C(O)O[C@H](CO)[C@@H](O)[C@@H]1O[C@@H]1O[C@H](CO)[C@H](O)[C@H](O)[C@H]1O` (some centres unmarked) [Galβ1,3GlcNAc]: at ST3O, the “Relative rate (%) ST30” value is 2%. Further, the “Relative rate (%) ST3N” value at ST3N (acceptor 0.2 mM) was found to be 49%. On rat ST3N, the “Relative activity (%) Rat” value is listed as 49%. Besides, the “Relative activity (%) Human” value on human ST3N was 48%.
`CC(=O)N[C@H]1[C@H](O[C@H]2[C@@H](O)[C@@H](CO)O[C@@H](O[C@H]3[C@H](O)[C@@H](O)C(O)O[C@@H]3CO)[C@@H]2O)O[C@H](CO)[C@@H](O)[C@@H]1O[C@@H]1O[C@H](CO)[C@H](O)[C@H](O)[C@H]1O` (some centres unmarked) [Galβ1,3GlcNAcβ1,3Galβ1,4Glc (LNT), Galβ1,3GlcNAcβ1,3Galβ1,4Glc]: the “Relative rate (%) ST30” value on ST3O amounted to 0.5%. For the same molecule, the “Relative rate (%) ST3N” value at ST3N (acceptor 0.2 mM) and at ST3N (acceptor 2.0 mM) was 100% each time. Besides, the “Relative activity (%) Rat” value on rat ST3N turned out to be 100%.
`CC(=O)N[C@H]1C(O)O[C@H](CO)[C@@H](O[C@@H]2O[C@H](CO)[C@H](O)[C@H](O)[C@H]2O)[C@@H]1O` (some centres unmarked) [Galβ1,4GlcNAc]: the “Relative rate (%) ST30” value on ST3O came out at 0%. The “Relative rate (%) ST3N” value on ST3N (acceptor 0.2 mM) is listed as 19%; on ST3N (acceptor 2.0 mM) it was 46%. Also, the “Relative activity (%) Rat” value at rat ST3N is recorded as 19%. The “Relative activity (%) Human” value at human ST3N was 22%.
Turning to `CC(=O)N[C@H]1[C@H](O[C@H]2[C@@H](O)[C@@H](CO)O[C@@H](O[C@H]3[C@H](O)[C@@H](O)C(O)O[C@@H]3CO)[C@@H]2O)O[C@H](CO)[C@@H](O[C@@H]2O[C@H](CO)[C@H](O)[C@H](O)[C@H]2O)[C@@H]1O` (some centres unmarked) [Galβ1,4GlcNAcβ1,3Galβ1,4Glc (LNnT), Galβ1,4GlcNAcβ1,3Galβ1,4Glc], the “Relative rate (%) ST30” value at ST3O was found to be 0%. In addition, the “Relative rate (%) ST3N” value worked out at 4% at ST3N (acceptor 0.2 mM) and 18% at ST3N (acceptor 2.0 mM). In addition, at rat ST3N, the “Relative activity (%) Rat” value was 4%.
With “signal peptide-ST (sp-ST), soluble form of porcine Galβ1,3GalNAc α2,3 sialyltransferase (pSVL-spST) (enzyme)”, the Relative rate (%) of sialic acid transfer, acceptor 0.2 mM amounted to 57% in [1], 0% in data set [2], 26% in data set [3] and 5% in data set [4].

B1: rat Galβ1,4GlcNAc α2,6-sialyltransferase (protein)
chain: SKQDPKEDIPILSYHRVTAKVKPQPSFQVWDKDSTYSKLNPRLLKIWRNYLNMNKYKVSYKGPGPGVKFSVEALRCHLRDHVNVSMIEATDFPFNTTEWEGYLPKENFRTKVGPWQRCAVVSSAGSLKNSQLGREIDNHDAVLRFNGAPTDNFQQDVGSKTTIRLMNSQLVTTEKRFLKDSLYTEGILIVWDPSVYHADIPKWYQKPDYNFFETYKSYRRLDPSQPFYILKPQMPWELWDIIQEISADLIQPNPPSSGMLGIIIMMTLCDQVDIYEFLPSKRKTDVCYYHQKFFDSACTMGAYHPLLFEKNMVKHLNEGTDEDIYLFGKATLSGFRNIRC
B1: the “total [14C]NeuAc released from labeled α1-acid glycoprotein product” value (“total [14C]NeuAc released” for short) in data set [5] is given as 0%.

B2: Form A: 48 kDa molecular weight form of the porcine liver α2,3 sialyltransferase (protein)
chain: TLKLLTLLVLFIFLTSFFLNYSHTVVTTAWFPKQMVIELSENFKKLMKYPYRPCTCTRCIEEQRVSAWFDERFNRSMQPLLTAKNAHLEEDTYKWWLRLQREKQPNNLNDTIRELFQVVPGNVDPLLEKRLVSCRRCAVVGNSGNLKESYYGPQIDSHDFVLRMNKAPTEGFEADVGSKTTHHFVYPESFRELAQEVSMILVPFKTTDLEWVISATTTGTISHTYVPVPAKIKVKKEKILIYHPAFIKYVFDRWLQGHGRYPSTGILSVIFSLHICDEVDLYGFGADSKGNWHHYWENNPSAGAFRKTGVHDGDFESNVTTILASINKIRIFKGR
For the molecule B2, the specific activity in data set [6] is 8-10 units/mg protein.

B3: rat Galβ1,3(4)GlcNAc α2,3 sialyltransferase (protein)
chain: T2 sequence (Q02734 29-374 limits assumed) with W226S, G257R
Consider B3, for which the “total [14C]NeuAc released” value in data set [5] is 82%.

B4: ST3: human sialyltransferase of SEQ. ID. NO:12; β-galactoside α2,3-sialyltransferase (protein)
chain: MCPAGWKLLAMLALVLVVMVWYSISREDRYIEPFYFPIPEKKEPCLQGEAESKASKLFGNYSRDQPIFLRLEDYFWVKTPSAYELPYGTKGSEDLLLRVLAITSSSIPKNIQSLRCRRCVVVGNGHRLRNSSLGDAINKYDVVIRLNNAPVAGYEGDVGSKTTMRLFYPESAHFDPKVENNPDTLLVLVAFKAMDFHWIETILSDKKRVRKGFWKQPPLIWDVNPKQIRILNPFFMEIAADKLLSLPMQQPRKIKQKPTTGLLAITLALHLCDLVHIAGFGYPDAYNKKQTIHYYEQITLKSMAGSGHNVSQEALAIKRMLEMGAIKNLTSF
B4: the “total [14C]NeuAc released” value in [5] came out at 83%.

B5: porcine Galβ1,3GalNAc α2,3 sialyltransferase (protein)
chain: T1 sequence (Q02745 28-343 limits assumed) with R201T
Regarding B5, the specific activity in data set [6] was 8-10 units/mg protein.
